Data from publication PMC7707092, “Discovery and characterization of ORM‐11372, a novel inhibitor of the sodium‐calcium exchanger with positive inotropic activity” (British Journal of Pharmacology, 2020).
Where two headings read alike, the source gives them in different places.

How the values were obtained:
[1] = test system: healthy rats; assay: In vivo haemodynamics in healthy rats (supplement); design: species or system rat
Description: In vivo haemodynamics in healthy rats
Experimental Animals and General Study Protocol
Rat was selected to the study as it is the most widely used rodent species in the toxicology studies performed for the small molecules during the drug development. […]
All animal experiments were made according to European Community Guidelines for the use of experimental animals and approved by Finnish National Animal Experiment Board. All studies complied with the ARRIVE guidelines, (NC3Rs Reporting Guidelines Working Group, 2010).
Specific pathogen free animals were housed in half -barrier rooms where special protecting clothing for personnel was required. Animal rooms were cleaned regularly 3 times per week and cages and bottles were […]
changed regular intervals once a week. Temperature was maintained at 22 ± 2°C and humidity at 55 ± 15%.
Light-dark cycle was lights on from 06.00 to 20.00h.
Male Sprague-Dawley rats (Harlan, Netherlands B.V.) were housed in polycarbonate cages (Makrolon® IV with stainless steel wire mesh lids). Maximally 5 rats were housed per cage with aspen chip bedding (Tapvei Ky, Kaavi, Finland). Rats had free access to water (twice filtered, Espoon Vesi) and rodent diet (SDS RM1
(P) SQC pelleted diet, Special Diet Services Ltd, Witham, England). Acclimation period before experiments was at least 5 days. Healthy 10-12 weeks aged weighing 300-400 g rats were randomized to ORM-11372, dobutamine or vehicle group.
At the end of the haemodynamic experiments, rats were terminated with an overdose of pentobarbital.
Anesthesia and ventilation
Rats were anaesthetised with isoflurane (2.25-2.5 %, Baxter) in carbogen (95 % O2 and 5 % CO2) and nitrous oxide (1:1) using a small rodent ventilator (Ugo Basile 7025, ~10 ml/kg, 60 strokes/min). The rats were infused with 0.9 % NaCl in […] at the stabilization and baseline level. Animals were placed on a heating table (+38°C). Tracheas were cannulated.
Systemic blood (SP) and left ventricular pressures (LVP) were measured with pressure transducers (BP:
Isotec, Hugo Sachs Elektronic, Germany; LVP: Mikro-Tip transducer SPR-249, Millar Instruments, USA). The signal was amplified (DC-bridge amplifier type 660, Hugo Sachs Elektronik, Germany), digitised (I/O connector block type SCB-68, National Instruments, USA), recorded and analysed (IHME 1.0.9, Fision Ltd, Finland). Left ventricular inotropic effect (LV +dP/dtmax) and relaxation (LV -dP/dtmin) and heart rate (HR) were analysed from LVP signal.
Blood sampling for the evaluation of plasma levels of the drug
At the end of each infusion, the blood samples (300-500 µl) were taken into chilled EDTA polypropylene tube (CapiJect®, Terumo) and centrifuged (4000 rpm, 10 min, at 4°C). Plasma was immediately frozen in polypropylene tubes and stored at –20°C. ORM-11372 and dobutamine were extracted from plasma samples using a liquid–liquid extraction and analysed using liquid chromatography–tandem mass spectrometry (Agilent Technologies series 1100 liquid chromatographic system and a Sciex LC-MS/MS API 4000 mass spectrometry). The lower limit of quantification for total plasma concentrations were 32.0 and 5.00 ng/ml from total for ORM-11372 and dobutamine, respectively. […]
The effects of dobutamine on blood pressure varies partially due to the use of racemate as active ingredient in the pharmaceutical formulation. (-)-dobutamine is α1-agonist and therefore causes increases in cardiac output and peripheral resistance. (+)-dobutamine acts via β1- and β2-adrenoceptors which leads to increase in heart rate and reduction in blood pressure 16.
Figure S20 Haemodynamics in healthy rats
Effects of ORM-11372 and dobutamine on haemodynamics in isoflurane anesthetized 10-12 weeks aged male Sprague-Dawley rats (Harlan, Netherlands B.V.) weighing 300-400 g. Shown are mean ± SEM and individual effects on the left ventricular contractility (LV+dP/dtmax, panel A), relaxation (LV-dP/dtmax, panel B), heart rate (panel C), and systolic arterial blood pressure (SAP, paned D). […]

[2] = test system: NCX; design: method as in Jost et al., 2013; Kohajda et al., 2016; details: Dog, reference not given, ref Jost et al., 2013, Kohajda et al., 2016, cited from earlier work
[3] = 4 nM up to 92 nM free plasma concentration

Row | Compound | absolute maximum positive inotropic effect [1] [%] | free plasma concentration achieving 25% positive inotropic effect [1] [nM] | free plasma concentration at absolute maximum positive inotropic effect [1] [nM] | free plasma concentration at maximum inotropic effect without any other effects [1] [nM] | free plasma concentration at the 10±2% (ORM-11372) / 16±3% (dobutamine) inotropic effect [1] [nM] | left ventricular relaxation [1, 3] | systolic blood pressure [1, 3] | improvement of relaxation (tendency) ([1]; 36 nM free plasma) [%] | effective free concentration range in rat plasma ([1]; Figure S20) [nM] | maximum inotropic effect without any other effects ([1]; at 92±8 nM free plasma) [%] | positive inotropic effect ([1]; at free plasma concentration 4±0.3 nM (ORM-11372), 16±0.8 nM (dobutamine)) [%] | decrease in heart rate ([1]; free plasma concentrations higher than 240 nM) [%] | relaxation ([1]; high concentration (≥240 nM)) | heart rate ([1]; up to 240 nM free plasma concentration) | IC50 ([2]; read-out: IC50 NCX forward) [nM] | IC50 ([2]; read-out: IC50 NCX reverse) [nM]
1 | Nc1cccc(-c2ccc(CNc3ccc(F)cc3)o2)c1 [ORM‐11372] | 44 | 36 ± 1.4 | 351 ± 92 | 92 ± 8 | 4 ± 0.3 | did not affect | did not affect | 7.5±4.5 | 4 to 300 | 34±5 | 10±2 | -7 to -12 | impaired relaxation | no effect |  | 
2 | O=C(CN1CCC(O)CC1)Nc1ccc(Oc2ccc3c(c2)CCC(c2ccccc2)O3)nc1 (stereo not shown) [ORM-10962] |  |  |  |  |  |  |  |  |  |  |  |  |  |  | 67 | 55
